{"source": "patent US9932339B2", "about": "“Helquats with heteroaromatic substituents, preparation thereof, and use thereof as G-quadruplex stabilizers” (USTAV ORGANICKE CHEMIE A BIOCHEMIE AV CR, V.V.I., priority 2014, dated 2018)", "key": {"[1]": {"tested_on": "G-quadruplex oligonucleotide F21T (human telomere)", "experiment": "FRET melting of G-quadruplex oligonucleotide F21T with ligands", "type": "binding", "conditions": "for ΔTm (° C.) F21T/ds26: helquat 1 μmol·l^−1, oligonucleotide 0.2 μmol·l^−1, 50-fold excess of double-stranded competitor ds26; for ΔTm (° C.) F21T: helquat 1 μmol·l^−1, oligonucleotide 0.2 μmol·l^−1, without competitor", "source_text": "(§1) To determine the degree of in vitro interactions of helquats with G-quadruplex(es), the oligonucleotides containing the guanine-rich sequences of human telomere (F21T) and NHE III1 promoter region of c-myc oncogene (Fmyc27T) were used. Both oligonucleotides capable of forming an intramolecular G-quadruplex were end-labeled with suitable fluorophores so as to form donor-acceptor FRET pair (5′-FAM and 3′-TAMRA). If the oligonucleotide is folded into the structure of the G-quadruplex, donor is in close proximity of acceptor and radiationless energy transfer to the acceptor occurs. With increasing temperature of the reaction mixture G-quadruplex structure gradually denatures and thus the donor and acceptor (FAM-TAMRA) drift apart. This leads to an increase in fluorescence of donor (FAM) and a decrease in fluorescence of acceptor (TAMRA).\n(§2) The result of measurement is the curve of dependence of the intensity of fluorescence of the donor on the temperature. If the G-quadruplex is stabilized by ligand, melting temperature will increase. Melting temperature of G-quadruplex corresponds to the temperature when 50% of the original amount of the folded G-quadruplex is denatured. The measurement outcome is the difference in the melting temperatures (ΔTm) of the G-quadruplex alone and the G-quadruplex stabilized by ligand. In case of Fmyc27T experiments were performed in cacodylate buffer (10 mmol·l^−1, pH=7.2) with KCl (5 mmol·l^−1) and LiCl (95 mmol·l^−1) oligonucleotide and in case of F21T oligonucleotide in cacodylate buffer (10 mmol·l^−1, pH=7.2) with KCl (25 mmol·l^−1) and LiCl (75 mmol·l^−1).\n(§3) Both oligonucleotides were denatured for 5 minutes at 95° C. and subsequently allowed to cool to room temperature (3 hours) in the switched-off thermoblock. The final oligonucleotide concentration in the reaction mixture was 0.2 μmol·l^−1. Test helquats were present at concentrations of 1 μmol·l^−1. The total reaction volume was 30 μl. The melting temperature of the oligonucleotides alone (without the presence of helquats) under these conditions was 58.1±0.2° C. for F21T and 64.7±0.4° C. for Fmyc27T. For determining the selectivity of binding of helquats to G-quadruplex in comparison with the double-stranded DNA, 50-fold excess of double-stranded DNA ([…] unlabeled competitor ds26 forming a hairpin) is added to the reaction mixture. After the addition to the reaction mixture ds26 competes with labeled oligonucleotide (Fmyc27T or F21T) for ligand binding. […] Melting temperature of oligonucleotides alone in the presence of the competitor is 59.4±0.5° C. for F21T and 66.3° C.±0.6° C. for Fmyc27T.\n(§4) Fluorescence of FAM donor was measured using real-time PCR apparatus Opticon 2 (excitation 470-505 nm and emission 523-543 nm) in temperature increments of 0.5° C. in the range 25 to 95° C. Evaluation of the sigmoid curves of fluorescence intensity dependent on the temperature were performed in GraphPad Prism 5 (GraphPad Software, Inc., USA). Using nonlinear five parametric regression the inflection point on the curve was calculated that corresponds to the melting temperature (Tm) of the G-quadruplex under the given conditions. The values were obtained from at least three independent measurements."}, "[2]": {"tested_on": "c-Myc27 oligonucleotide G-quadruplex", "experiment": "ECD melting curve of c-Myc27 oligonucleotide G-quadruplex with ligands", "type": "binding", "conditions": "ECD at 263 nm; molar ratio oligonucleotide:ligand 1:1 (5 μmol l^−1 each); Li+-cacodylate buffer", "experimental": "ECD spectra were measured on J-815 spectrometer (Jasco, Japan). Measurement settings (Tab. 3), spectra saving and background subtraction was performed in a Spectra Manager software (Jasco, Japan).\nFor measurement of the temperature dependencies the cuvettes in the cuvette compartment were placed in the Peltier module, the temperature was controlled by the Spectra Manager software. Melting curves were measured at a wavelength which corresponds to the maximum difference in signal intensity of ECD spectra of oligonucleotide at 25 and 95° C., as shown in FIG. 1. Before and after measuring the melting curves, ECD spectra in extreme temperatures were measured, in order to verify the stability of the studied system.\nProcessing of the spectra was performed using Spectra Manager (Jasco, Japan). The resulting spectra were obtained from the measured sample spectrum after subtraction of background spectrum, which was spectrum of the solvent. Measuring of sample spectrum and background was conducted under identical conditions. ECD spectra are reported as ellipticity, labeled in the CD figures [mdeg], whose numerical value is associated with dimensionless circular dichroism ΔA (CDv=32980 ΔAv). This CD notations preserves conventions of the international journals in which articles from the field are published.\nStock solution of […] was prepared from c-Myc27 oligonucleotide by dissolution in H2O. The cuvette of 1 mm thickness was filled with 7 μl of oligonucleotide solution and 133 μl of Li^+-cacodylate buffer. Oligonucleotide solution in the cuvette was overlayed with mineral oil to measure temperature dependencies without concentration changes due to evaporation of the solvent at higher temperatures.\nFrom stock solutions of the racemic ligands in DMSO at a concentration of […] solutions were prepared at a concentration of 140 μmol l^−1 by dissolving in H2O. Ligands were added to the solution of oligonucleotide under buffer/mineral oil interface using Hamilton microsyringe (5 μl of solution at a concentration of […]). The resulting molar ratio of oligonucleotide:ligand was 1:1.\nThe cuvette filled with c-Myc27 oligonucleotide solution in Li^+-cacodylate buffer (cc-Myc27=5 μmol l^−1) was first heated for 5 minutes at 95° C., at this temperature ECD spectrum was measured. Then the sample was cooled to 25° C., allowed to stabilize for 10 min and then ECD spectrum was measured again. Then, the melting curve of ECD oligonucleotide at 263 nm was measured in the temperature range 25-95° C. and for verification of the stability of the sample spectra the spectra were measured again at 95 and 25° C. Under the oil layer ligand solution (cligand=5 μmol l^−1) was added to a solution of oligonucleotide, the sample was thoroughly mixed and ECD spectrum measured at 25° C., the melting curve was obtained and again control spectra were measured at 95 and 25° C.\nDecomposition of the G-quadruplex structure in the presence of ligands under influence of temperature was monitored at the wavelength corresponding to the maximum difference in signal intensities of ECD oligonucleotide/ligand at 25 and 95° C., i.e. at 263 nm. Thermal stability of G-quadruplex was monitored in the range of 25 to 95° C. and in a molar ratio of oligonucleotide:ligand=1:1. Example of influence of the studied ligand on the stability of G-quadruplex formed from c-Myc27 oligonucleotide is shown in FIG. 2.\nThe degree of G-quadruplex stabilization was expressed as change of melting temperature caused by the presence of G-quadruplex ligands (ΔTm): ΔTm=Tm,oligonucleotide+ligand−Tm,oligonucleotide (1), • where Tm,oligonucleotide+ligand is melting temperature of molecular system comprising the oligonucleotide and the ligand and Tm,oligonucleotide, the melting temperature of the oligonucleotide itself. Tab. 4 summarizes the changes in melting temperatures of c-Myc27 oligonucleotide G-quadruplex in the presence of studied ligands."}, "[3]": {"tested_on": "G-quadruplex oligonucleotide Fmyc27T (NHE III1 promoter region of c-myc oncogene)", "experiment": "FRET melting of G-quadruplex oligonucleotide Fmyc27T with ligands", "type": "binding", "conditions": "for ΔTm (° C.) Fmyc27T/ds26 (° C.): helquat 1 μmol·l^−1, oligonucleotide 0.2 μmol·l^−1, 50-fold excess of double-stranded competitor ds26; for ΔTm (° C.) Fmyc27T: helquat 1 μmol·l^−1, oligonucleotide 0.2 μmol·l^−1, without competitor", "source_text": "as §1, §2, §3, §4"}, "G-quadruplex": {"tested_on": "G-quadruplex", "conditions": "background statement; cited from earlier work"}, "[4]": {"conditions": "Phase II clinical trials; cited from earlier work"}}}
{"smiles": "Brc1ccc2[nH]cc(/C=C/c3cc[n+]4c(c3)-c3c(ccc5c3-c3cccc[n+]3CC5)CC4)c2c1.O=S(=O)([O-])C(F)(F)F.O=S(=O)([O-])C(F)(F)F", "note": "[LSA-C9-30, (E)-2-(2-(5-bromo-1H-indol-3-yl)vinyl)-6,7,10,11-tetrahydrodipyrido[2,1-a:1′,2′-k][2,9]phenanthroline-5,12-diium trifluoromethanesulfonate]", "values": [{"measurement": "ΔTm (° C.) F21T/ds26", "setting": "[1]", "result": 5.5, "unit": "°C"}, {"measurement": "ΔTm (° C.) F21T", "setting": "[1]", "result": 8.6, "unit": "°C"}, {"measurement": "ΔTm (° C.)", "setting": "[2]", "result": 6.4, "unit": "°C"}, {"measurement": "ΔTm (° C.) Fmyc27T/ds26 (° C.)", "setting": "[3]", "result": 8.2, "unit": "°C"}, {"measurement": "ΔTm (° C.) Fmyc27T", "setting": "[3]", "result": 10.5, "unit": "°C"}]}
{"smiles": "C(=C\\c1c(-c2ccccc2)[nH]c2ccccc12)/c1cc[n+]2c(c1)-c1c(ccc3c1-c1cc(/C=C/c4c(-c5ccccc5)[nH]c5ccccc45)cc[n+]1CC3)CC2.O=S(=O)([O-])C(F)(F)F.O=S(=O)([O-])C(F)(F)F", "note": "[PDA-C15-8, 2,15-bis((E)-2-(2-phenyl-1H-indol-3-yl)vinyl)-6,7,10,11-tetrahydrodipyrido[2,1-a:1′,2′-k][2,9]phenanthroline-5,12-diium trifluoromethanesulfonate]", "values": [{"measurement": "ΔTm (° C.) F21T/ds26", "setting": "[1]", "result": 17.3, "unit": "°C"}, {"measurement": "ΔTm (° C.) F21T", "setting": "[1]", "result": 17.2, "unit": "°C"}, {"measurement": "ΔTm (° C.)", "setting": "[2]", "result": 10.1, "unit": "°C"}, {"measurement": "ΔTm (° C.) Fmyc27T/ds26 (° C.)", "setting": "[3]", "result": 19.9, "unit": "°C"}, {"measurement": "ΔTm (° C.) Fmyc27T", "setting": "[3]", "result": 18.8, "unit": "°C"}]}
{"smiles": "Cc1[nH]c2ccccc2c1/C=C/c1cc[n+]2c(c1)-c1c(c(C)c(C)c3c1-c1cc(/C=C/c4c(C)[nH]c5ccccc45)cc[n+]1CC3)CC2", "note": "[PDB-C10-11, 8,9-dimethyl-2,15-bis((E)-2-(2-methyl-1H-indol-3-yl)vinyl)-6,7,10,11-tetrahydrodipyrido[2,1-a:1′,2′-k][2,9]phenanthroline-5,12-diium trifluoromethanesulfonate]", "values": [{"measurement": "ΔTm (° C.) F21T/ds26", "setting": "[1]", "result": 10.7, "unit": "°C"}, {"measurement": "ΔTm (° C.) F21T", "setting": "[1]", "result": 13.0, "unit": "°C"}, {"measurement": "ΔTm (° C.)", "setting": "[2]", "result": 9.8, "unit": "°C"}, {"measurement": "ΔTm (° C.) Fmyc27T/ds26 (° C.)", "setting": "[3]", "result": 13.1, "unit": "°C"}, {"measurement": "ΔTm (° C.) Fmyc27T", "setting": "[3]", "result": 14.2, "unit": "°C"}]}
{"smiles": "C[n+]1ccc(-c2c3nc(c(-c4cc[n+](C)cc4)c4ccc([nH]4)c(-c4cc[n+](C)cc4)c4ccc([nH]4)c(-c4cc[n+](C)cc4)c4nc2C=C4)C=C3)cc1", "note": "[TMPyP4]", "values": [{"measurement": "selectivity towards G-quadruplex in presence of DNA duplex", "setting": "G-quadruplex", "result": "low selectivity"}]}
{"smiles": "Cc1[nH]c2ccccc2c1/C=C/c1cc[n+]2c(c1)-c1c(ccc3c1-c1cc(/C=C/c4c(C)[nH]c5ccccc45)cc[n+]1CC3)CC2.O=S(=O)([O-])C(F)(F)F.O=S(=O)([O-])C(F)(F)F", "note": "[PDA-C10-11, 2,15-bis((E)-2-(2-methyl-1H-indol-3-yl)vinyl)-6,7,10,11-tetrahydrodipyrido[2,1-a:1′,2′-k][2,9]phenanthroline-5,12-diium trifluoromethanesulfonate]", "values": [{"measurement": "ΔTm (° C.) F21T/ds26", "setting": "[1]", "result": 12.3, "unit": "°C"}, {"measurement": "ΔTm (° C.) F21T", "setting": "[1]", "result": 12.9, "unit": "°C"}, {"measurement": "ΔTm (° C.)", "setting": "[2]", "result": 8.2, "unit": "°C"}, {"measurement": "ΔTm (° C.) Fmyc27T/ds26 (° C.)", "setting": "[3]", "result": 13.9, "unit": "°C"}, {"measurement": "ΔTm (° C.) Fmyc27T", "setting": "[3]", "result": 14.9, "unit": "°C"}]}
{"smiles": "CN1CCC[C@H]1CCNC(=O)c1cn2c3c(c(N4CCC(c5cnccn5)C4)c(F)cc3c1=O)Oc1cc3ccccc3cc1-2", "note": "(stereo partly drawn) [quarfloxin]", "values": [{"measurement": "bioavailability", "setting": "[4]", "result": "poor bioavailability"}]}
{"smiles": "Cc1c(C)c2c(c3c1CC[n+]1ccc(/C=C/c4c[nH]c5ncccc45)cc1-3)-c1cc(/C=C/c3c[nH]c4ncccc34)cc[n+]1CC2", "note": "[PDB-C8-14, 2,15-bis((E)-2-(1H-pyrrolo[2,3-b]pyridin-3-yl)vinyl)-8,9-dimethyl-6,7,10,11-tetrahydrodipyrido[2,1-a:1′,2′-k][2,9]phenanthroline-5,12-diium trifluoromethanesulfonate]", "values": [{"measurement": "ΔTm (° C.) F21T/ds26", "setting": "[1]", "result": 5.0, "unit": "°C"}, {"measurement": "ΔTm (° C.) F21T", "setting": "[1]", "result": 8.4, "unit": "°C"}, {"measurement": "ΔTm (° C.)", "setting": "[2]", "result": 5.0, "unit": "°C"}, {"measurement": "ΔTm (° C.) Fmyc27T/ds26 (° C.)", "setting": "[3]", "result": 9.3, "unit": "°C"}, {"measurement": "ΔTm (° C.) Fmyc27T", "setting": "[3]", "result": 11.5, "unit": "°C"}]}
